Assay results as given in patent US10138207B2, “Benzomorphan analogs and the use thereof” (priority 2012, dated 2018).
Read-outs that look alike come from different tables or passages of the source.

Tests used:
κ opioid receptor [1] = molecular target: T1, κ opioid receptor (Homo sapiens, UniProt P41145); experiment: biochemical; format: binding; set-up: expressed in transfected cells; host or cells: HEK 293 (in-house membrane prep); settings: HEK-293 or CHO cells
κ opioid receptor [2] = molecular target: T1, κ opioid receptor; experiment: κ-opioid receptor [35S]GTPγS functional assay, U-2 OS cells; format: biochemical; set-up: expressed in transfected cells; host or cells: U-2 OS (in-house membranes); settings: for Emax: read-out: GTPγS κ Emax
Procedure: Membranes from recombinant HEK-293 cells, CHO or U-2 OS cells expressing the recombinant human κ opioid receptor (κ) were prepared by lysing cells in ice cold hypotonic buffer (2.5 mM MgCl2, 50 mM HEPES, pH 7.4) (10 mL/10 cm dish) followed by homogenization with a tissue grinder/Teflon pestle. […] Membranes were collected by centrifugation at 30,000×g for 15 min at 4° C. and pellets were resuspended in hypotonic buffer to a final concentration of 1-3 mg/mL. Protein concentrations were determined using the BioRad protein assay reagent with bovine serum albumen as standard. Aliquots of κ receptor membranes were stored at −80° C.
Plates were incubated for 30 min at a temperature of about 25° C. with shaking.

μ-opioid receptor = μ-opioid receptor (Homo sapiens, UniProt P35372); experiment: μ-opioid receptor [35S]GTPγS functional assay, U-2 OS cells; format: biochemical; set-up: expressed in transfected cells; host or cells: U-2 OS; settings: for Emax: relative to DAMGO
μ-opioid receptor, sequence (P35372 whole entry, species assumed): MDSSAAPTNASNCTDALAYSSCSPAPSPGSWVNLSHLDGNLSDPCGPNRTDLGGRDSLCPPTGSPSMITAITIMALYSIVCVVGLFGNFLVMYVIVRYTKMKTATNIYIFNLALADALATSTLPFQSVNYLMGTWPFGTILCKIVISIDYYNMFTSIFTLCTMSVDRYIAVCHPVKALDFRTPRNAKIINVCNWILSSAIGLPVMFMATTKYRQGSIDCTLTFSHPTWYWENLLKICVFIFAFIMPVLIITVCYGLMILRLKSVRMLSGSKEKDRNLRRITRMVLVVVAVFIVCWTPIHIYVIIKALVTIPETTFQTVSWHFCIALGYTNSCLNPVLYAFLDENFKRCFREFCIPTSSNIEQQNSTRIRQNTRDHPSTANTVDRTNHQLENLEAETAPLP

[3] = U-2 OS cells, read-out: GTPγS κ EC50
[4] = U-2 OS cells, relative to U69,593
[5] = U-2 OS cells, read-out: GTPγS μ EC50
[6] = U-2 OS cells, read-out: GTPγS μ Emax
[7] = U-2 OS cells, bound in μM, read-out: GTPγS κ EC50

T1 sequence (P41145 whole entry): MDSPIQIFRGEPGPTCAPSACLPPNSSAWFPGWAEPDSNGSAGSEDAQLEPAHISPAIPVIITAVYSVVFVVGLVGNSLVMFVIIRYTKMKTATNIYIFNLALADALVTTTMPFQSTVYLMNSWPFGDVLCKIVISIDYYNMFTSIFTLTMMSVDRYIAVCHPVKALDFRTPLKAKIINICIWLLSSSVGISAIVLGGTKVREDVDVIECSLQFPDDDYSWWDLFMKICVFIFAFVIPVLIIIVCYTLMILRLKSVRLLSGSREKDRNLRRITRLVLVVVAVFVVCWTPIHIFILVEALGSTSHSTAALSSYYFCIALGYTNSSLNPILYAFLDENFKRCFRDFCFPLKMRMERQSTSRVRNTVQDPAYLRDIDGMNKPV

| SMILES | EC50 (κ opioid receptor [2]; [3]) [µM] | Emax (κ opioid receptor [2]; [4]) [%] | EC50 (μ-opioid receptor; [5]) [µM] | Emax (μ-opioid receptor; [6]) [%] | further results |
| --- | --- | --- | --- | --- | --- |
| COc1ccc2c(c1)[C@@]1(C)CCN(C)C(C2)C1NC(=O)/C=C/c1ccoc1 (stereo in doubt) [Compound 23, (E)-3-(furan-3-yl)-N-((2R,6R,11S)-8-methoxy-3,6-dimethyl-1,2,3,4,5,6-hexahydro-2,6-methanobenzo[d]azocin-11-yl)acrylamide] |  |  |  |  | Ki (κ opioid receptor [1]): 13.2 µM |
| CN[C@@H]1C2Cc3ccc(OC)cc3[C@@]1(C)CCN2C [Compound 8, (6R,11S)-8-methoxy-N,3,6-trimethyl-1,2,3,4,5,6-hexahydro-2,6-methanobenzo[d]azocin-11-amine] |  |  |  |  | Ki (κ opioid receptor [1]; bound in μM): > 20 µM |
| CN[C@H]1C2Cc3ccc(OC)cc3[C@@]1(C)CCN2C [Compound 9, (6R,11R)-8-methoxy-N,3,6-trimethyl-1,2,3,4,5,6-hexahydro-2,6-methanobenzo[d]azocin-11-amine] |  |  |  |  | Ki (κ opioid receptor [1]): 18.9 ± 3.13 µM |
| CON=C1C2Cc3ccc(OC)cc3C1(C)CCN2CC1CC1 (centres unmarked) [Compound 10, 3-(cyclopropylmethyl)-8-methoxy-6-methyl-1,2,3,4,5,6-hexahydro-2,6-methanobenzo[d]azocin-11-one O-methyl Oxime] |  |  |  |  | Ki (κ opioid receptor [1]): 2.14 ± 0.151 µM |
| COc1ccc2c(c1)[C@@]1(C)CCN(C)C(C2)[C@@H]1CO [Compound 11, ((6S,11R)-8-methoxy-3,6-dimethyl-1,2,3,4,5,6-hexahydro-2,6-methanobenzo[d]azocin-11-yl)methanol] |  |  |  |  | Ki (κ opioid receptor [1]; bound in μM): > 20 µM |
| CCOC(=O)/C=C1\C2Cc3ccc(OC)cc3C1(C)CCN2C (centres unmarked) [Compound 12] |  |  |  |  | Ki (κ opioid receptor [1]; bound in μM): > 20 µM |
| COc1ccc2c(c1)C1(C)CCN(C)C(C2)/C1=C\C(=O)O (centres unmarked) [Compound 13, (Z)-2-(8-methoxy-3,6-dimethyl-1,2,3,4,5,6-hexahydro-2,6-methanobenzo[d]azocin-11-ylidene)acetic acid] |  |  |  |  | Ki (κ opioid receptor [1]; bound in μM): > 20 µM |
| CCOC(=O)C[C@H]1C2Cc3ccc(OC)cc3[C@@]1(C)CCN2C [Compound 14, ethyl 2-((6S,11R)-8-methoxy-3,6-dimethyl-1,2,3,4,5,6-hexahydro-2,6-methanobenzo[d]azocin-11-yl)acetate] |  |  |  |  | Ki (κ opioid receptor [1]): 14.3 µM |
| C[C@]12CCN(CC3CC3)[C@H](Cc3ccc(O)cc31)[C@@H]2NS(=O)(=O)c1cccc(C(F)(F)F)c1 [Compound 129, N-((2R,6S,11R)-3-(cyclopropylmethyl)-8-hydroxy-6-methyl-1,2,3,4,5,6-hexahydro-2,6-methanobenzo[d]azocin-11-yl)-3-(trifluoromethyl)benzenesulfonamide] | 0.00078 ± 7e-05 | 97.3 ± 1.86 | 0.00914 ± 0.00119 | 20 ± 1.15 |  |
| CN([C@@H]1[C@H]2Cc3ccc(O)cc3[C@]1(C)CCN2CC1CC1)S(=O)(=O)c1cccc(C(F)(F)F)c1 [Compound 130, N-((2R,6S,11S)-3-(cyclopropylmethyl)-8-hydroxy-6-methyl-1,2,3,4,5,6-hexahydro-2,6-methanobenzo[d]azocin-11-yl)-N-methyl-3-(trifluoromethyl)benzenesulfonamide] | 0.0228 ± 0.00338 | 71 ± 3.11 | 0.373 ± 0.105 | 29 ± 2 |  |
| CN1CC[C@@]2(C)c3cc(O)ccc3C[C@@H]1[C@H]2N(C)S(=O)(=O)c1cccc(C(F)(F)F)c1 [Compound 131, N-((2R,6S,11S)-8-hydroxy-3,6-dimethyl-1,2,3,4,5,6-hexahydro-2,6-methanobenzo[d]azocin-11-yl)-N-methyl-3-(trifluoromethyl)benzenesulfonamide] |  | 0 | 0.29 ± 0.00532 | 69 ± 1 | EC50 (κ opioid receptor [2]; [7]): > 20 µM |
| CN1CC[C@@]2(C)c3cc(O)ccc3C[C@@H]1[C@@H]2N(C)S(=O)(=O)c1cccc(C(F)(F)F)c1 [Compound 132, N-((2R,6S,11R)-8-hydroxy-3,6-dimethyl-1,2,3,4,5,6-hexahydro-2,6-methanobenzo[d]azocin-11-yl)-N-methyl-3-(trifluoromethyl)benzenesulfonamide] | 0.0114 ± 0.00158 | 89 ± 5.69 | 0.00303 ± 0.00017 | 95.3 ± 2.6 |  |
| CN(C(=O)Nc1ccc(C(C)(C)C)cc1)[C@@H]1[C@H]2Cc3ccc(O)cc3[C@]1(C)CCN2CC1CC1 [Compound 133, 3-(4-(tert-butyl)phenyl)-1-((2R,6S,11S)-3-(cyclopropylmethyl)-8-hydroxy-6-methyl-1,2,3,4,5,6-hexahydro-2,6-methanobenzo[d]azocin-11-yl)-1-methylurea] | 0.0217 ± 0.00316 | 42 ± 4.02 | 0.0039 ± 0.00074 | 22.3 ± 1.2 |  |
| CN(C(=O)Nc1nc2cc(F)ccc2s1)[C@@H]1[C@H]2Cc3ccc(O)cc3[C@]1(C)CCN2CC1CC1 [Compound 134, 1-((2R,6S,11S)-3-(cyclopropylmethyl)-8-hydroxy-6-methyl-1,2,3,4,5,6-hexahydro-2,6-methanobenzo[d]azocin-11-yl)-3-(5-fluorobenzo[d]thiazol-2-yl)-1-methylurea] |  |  |  |  | EC50 (κ opioid receptor [2]): > 20 µM; Emax (κ opioid receptor [2]): 90%; EC50 (μ-opioid receptor; GTPγS μ EC50, U-2 OS cells): 0.00147 ± 0.00058 µM; Emax (μ-opioid receptor; read-out: GTPγS μ Emax, U-2 OS cells): 16 ± 0.71% |
| C=CC[C@@]12CCN(C)C(Cc3ccc(OC)cc31)[C@@H]2N(C)C(=O)Nc1ccc(C#N)cc1 [Compound 135, 1-((6R,11R)-6-allyl-8-methoxy-3-methyl-1,2,3,4,5,6-hexahydro-2,6-methanobenzo[d]azocin-11-yl)-3-(4-cyanophenyl)-1-methylurea] | 2.81 ± 0.397 | 22 ± 2.52 | 1.7 ± 0.112 | 92 ± 2.65 |  |
| CCC[C@@]12CCN(C)C(Cc3ccc(OC)cc31)[C@@H]2N(C)C(=O)Nc1ccc(C#N)cc1 [Compound 136, 3-(4-cyanophenyl)-1-((6R,11R)-8-methoxy-3-methyl-6-propyl-1,2,3,4,5,6-hexahydro-2,6-methanobenzo[d]azocin-11-yl)-1-methylurea] | 3.83 ± 0.541 | 22.3 ± 3.71 | 2.33 ± 0.236 | 62.3 ± 3.84 |  |
| CCC[C@@]12CCN(C)C(Cc3ccc(O)cc31)[C@H]2N(C)C(=O)Nc1ccc(C#N)cc1 [Compound 137, 3-(4-cyanophenyl)-1-((6R,11S)-8-hydroxy-3-methyl-6-propyl-1,2,3,4,5,6-hexahydro-2,6-methanobenzo[d]azocin-11-yl)-1-methylurea] | 3.37 ± 0.753 | 30 ± 2.31 | 1.32 ± 0.177 | 50.3 ± 1.76 |  |
| CCC[C@@]12CCN(C)C(Cc3ccc(OC)cc31)[C@H]2N(C)C(=O)Nc1ccc(CN)cc1 [Compound 138, 3-(4-(aminomethyl)phenyl)-1-((6R,11S)-8-methoxy-3-methyl-6-propyl-1,2,3,4,5,6-hexahydro-2,6-methanobenzo[d]azocin-11-yl)-1-methylurea] |  | 35.5 ± 2.06 |  | 45.3 ± 2.33 | EC50 (κ opioid receptor [2]; [7]): > 20 µM; EC50 (μ-opioid receptor; U-2 OS cells, bound in μM, read-out: GTPγS μ EC50): > 20 µM |
| CN1CC[C@@]2(C)c3cc(O)ccc3C[C@@H]1[C@@H]2NC(=O)Nc1nc2cc(F)ccc2s1 [Compound 139, 1-(5-fluorobenzo[d]thiazol-2-yl)-3-((2R,6S,11R)-8-hydroxy-3,6-dimethyl-1,2,3,4,5,6-hexahydro-2,6-methanobenzo[d]azocin-11-yl)urea] | 0.0918 ± 0.00488 | 48 ± 5.13 | 0.0125 ± 0.00218 | 87 ± 3.08 |  |
| CN1CC[C@@]2(C)c3cc(O)ccc3C[C@@H]1[C@@H]2N(C)C(=O)Nc1nc2cc(F)ccc2s1 [Compound 140, 3-(5-fluorobenzo[d]thiazol-2-yl)-1-((2R,6S,11R)-8-hydroxy-3,6-dimethyl-1,2,3,4,5,6-hexahydro-2,6-methanobenzo[d]azocin-11-yl)-1-methylurea] | 0.00468 ± 0.0004 | 107 ± 4.4 | 0.0001 ± 1e-05 | 82 ± 0.91 |  |
